# Experimental data taken from US10485800B2, “Mixed lineage kinase inhibitors for HIV/AIDS therapies” (UNIVERSITY OF ROCHESTER, priority 2012, dated 2019).
# pIC50: −log10 of the molar value. Structures can show the parent of a compound that is named as a salt. Where two headings read alike, the source gives them in different places.
# Target: MLK3 (Homo sapiens (Human), UniProt Q16584)
# Test: Radiometric filter plate MLK3 assay
# Format: biochemical
# Conditions: read-out: MK3 IC50
# Procedure: After a twenty minute incubation, the reactions were washed through filter plates and read on a scintillation counter. Results are shown in Table 9 below, in which +++ indicates ≤0.1 μM, ++ indicates >0.1 μM and ≤1 μM, and + indicates >1 μM.
# [1] = 2 μM cold ATP (Km), 1 μM inactive MKK7b, twenty minute incubation
# Chain of MLK3 (Q16584 whole entry): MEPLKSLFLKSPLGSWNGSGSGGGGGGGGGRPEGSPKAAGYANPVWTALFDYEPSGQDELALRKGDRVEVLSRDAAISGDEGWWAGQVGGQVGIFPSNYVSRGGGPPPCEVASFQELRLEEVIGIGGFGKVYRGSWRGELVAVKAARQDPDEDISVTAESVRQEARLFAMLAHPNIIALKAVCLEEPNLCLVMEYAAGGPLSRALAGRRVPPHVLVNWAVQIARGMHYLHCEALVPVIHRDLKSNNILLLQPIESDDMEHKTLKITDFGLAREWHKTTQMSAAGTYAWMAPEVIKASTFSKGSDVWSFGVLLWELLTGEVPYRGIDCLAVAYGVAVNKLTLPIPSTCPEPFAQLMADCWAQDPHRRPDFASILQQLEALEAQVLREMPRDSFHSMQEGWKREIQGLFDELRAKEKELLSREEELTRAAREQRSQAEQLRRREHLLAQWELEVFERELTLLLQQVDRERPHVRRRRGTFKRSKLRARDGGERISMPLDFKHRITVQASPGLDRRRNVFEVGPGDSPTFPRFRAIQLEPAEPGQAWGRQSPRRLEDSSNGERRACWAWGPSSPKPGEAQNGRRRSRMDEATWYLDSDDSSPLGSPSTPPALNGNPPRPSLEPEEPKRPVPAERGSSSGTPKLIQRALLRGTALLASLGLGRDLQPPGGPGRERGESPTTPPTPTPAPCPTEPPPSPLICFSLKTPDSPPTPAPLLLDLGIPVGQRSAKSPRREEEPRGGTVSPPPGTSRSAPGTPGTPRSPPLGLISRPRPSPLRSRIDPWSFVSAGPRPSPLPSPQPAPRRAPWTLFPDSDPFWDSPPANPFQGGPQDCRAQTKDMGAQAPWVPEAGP
SMILES,pIC50 [1],pIC50
"CC(=O)N1CCN(Cc2ccc(-c3cnc4[nH]cc(-c5ccc6[nH]ccc6c5)c4c3)cc2)CC1 [Example 140, 1-(4-{4-[3-(1H-indol-5-yl)-1H-pyrrolo[2,3-b]pyridin-5-yl]-benzyl}-piperazin-1-yl)-ethanone]",< 6.00,
"CN1CCN(Cc2ccc(-c3cnc4[nH]cc(-c5ccc6[nH]ccc6c5)c4c3)cc2)CC1=O [Example 141, 4-{4-[3-(1H-indol-5-yl)-1H-pyrrolo[2,3-b]pyridin-5-yl]-benzyl}-1-methyl-piperazin-2-one]",> 7.00,
"O=C1CN(Cc2ccc(-c3cnc4[nH]cc(-c5ccc6[nH]ccc6c5)c4c3)cc2)CCN1 [Example 142, 4-{4-[3-(1H-indol-5-yl)-1H-pyrrolo[2,3-b]pyridin-5-yl]-benzyl}-piperazin-2-one]",> 7.00,
"CN1CCN(Cc2cccc(-c3cnc4[nH]cc(-c5ccc6[nH]ccc6c5)c4c3)c2)CC1=O [Example 143, 4-{3-[3-(1H-indol-5-yl)-1H-pyrrolo[2,3-b]pyridin-5-yl]-benzyl}-1-methyl-piperazin-2-one]",> 7.00,
"CC(C)(C)OC(=O)N1CCN(Cc2ccc(-c3cnc4[nH]cc(-c5ccc6[nH]ccc6c5)c4c3)cc2)CC1 [Example 144, 4-{4-[3-(1H-indol-5-yl)-1H-pyrrolo[2,3-b]pyridin-5-yl]-benzyl}-piperazine-1-carboxylic acid tert-butyl ester]",> 7.00,
"CC(=O)N1CCN(C(=O)c2ccc(-c3cnc4[nH]cc(-c5ccc6[nH]ccc6c5)c4c3)cc2)CC1 [Example 146, 1-(4-{4-[3-(1H-indol-5-yl)-1H-pyrrolo[2,3-b]pyridin-5-yl]-benzoyl}-piperazin-1-yl)-ethanone]",> 7.00,
"CN1CCN(C(=O)c2cccc(-c3cnc4[nH]cc(-c5ccc6[nH]ccc6c5)c4c3)c2)CC1 [Example 147, {3-[3-(1H-indol-5-yl)-1H-pyrrolo[2,3-b]pyridin-5-yl]-phenyl}-(4-methyl-piperazin-1-yl)-methanone]",,> 7.00
"CC(C)(C)OC(=O)N1CCN(C(=O)c2ccc(-c3cnc4[nH]cc(-c5ccc(C(N)=O)cc5)c4c3)cc2)CC1 [Example 148, 4-{4-[3-(4-carbamoyl-phenyl)-1H-pyrrolo[2,3-b]pyridin-5-yl]-benzoyl}-piperazine-1-carboxylic acid tert-butyl ester]",> 7.00,
"NC(=O)c1ccc(-c2c[nH]c3ncc(-c4ccc(C(=O)N5CCNCC5)cc4)cc23)cc1 [Example 149, 4-{5-[4-(piperazine-1-carbonyl)-phenyl]-1H-pyrrolo[2,3-b]pyridin-3-yl}-benzamide, hydrochloride salt]",> 7.00,
"CC(C)(C)OC(=O)N1CCN(C(=O)c2cccc(-c3cnc4[nH]cc(-c5ccc(C(N)=O)cc5)c4c3)c2)CC1 [Example 151, 4-{3-[3-(4-carbamoyl-phenyl)-1H-pyrrolo[2,3-b]pyridin-5-yl]-benzoyl}-piperazine-1-carboxylic acid tert-butyl ester]",> 7.00,
"COc1cc(-c2cc3c(-c4ccc(C(N)=O)cc4)c[nH]c3[n+]([O-])c2)cc(OC)c1OC [Example 154, 4-[7-oxy-5-(3,4,5-trimethoxy-phenyl)-1H-pyrrolo[2,3-b]pyridin-3-yl]-benzamide]",6.00 to 7.00,
"CN1CCN(Cc2cccc(-c3cnc4[nH]cc(-c5ccc(C(N)=O)cc5)c4c3)c2)CC1 [Example 156, 4-{5-[3-(4-methyl-piperazin-1-ylmethyl)-phenyl]-1H-pyrrolo[2,3-b]pyridin-3-yl}-benzamide]",> 7.00,
"CC(=O)N1CCN(Cc2ccc(-c3cnc4[nH]cc(-c5ccc(C(N)=O)cc5)c4c3)cc2)CC1 [Example 157, 4-{5-[4-(4-acetyl-piperazin-1-ylmethyl)-phenyl]-1H-pyrrolo[2,3-b]pyridin-3-yl}-benzamide]",> 7.00,
"CN1CCN(Cc2ccc(-c3cnc4[nH]cc(-c5ccc(C(N)=O)cc5)c4c3)cc2)CC1=O [Example 158, 4-{5-[4-(4-methyl-3-oxo-piperazin-1-ylmethyl)-phenyl]-1H-pyrrolo[2,3-b]pyridin-3-yl}-benzamide]",> 7.00,
"COc1cc(-c2cnc3[nH]cc(-c4ccc(CNC(C)=O)cc4)c3c2)cc(OC)c1OC [Example 159, N-{4-[5-(3,4,5-Trimethoxy-phenyl)-1H-pyrrolo[2,3-b]pyridin-3-yl]-benzyl}-acetamide]",> 7.00,
"CN1CCN(Cc2ccc(-c3c[nH]c4ncc(-c5ccc(C(N)=O)cc5)cc34)cc2)CC1 [Example 162, 4-{3-[4-(4-methyl-piperazin-1-ylmethyl)-phenyl]-1H-pyrrolo[2,3-b]pyridin-5-yl}-benzamide]",> 7.00,
"CN1CCN(Cc2ccc(-c3c[nH]c4ncc(-c5ccc6[nH]ccc6c5)cc34)cc2)CC1 [Example 163, 5-(1H-indol-5-yl)-3-[4-(4-methyl-piperazin-1-ylmethyl)-phenyl]-1H-pyrrolo[2,3-b]pyridine]",< 6.00,
"CNC(=O)c1ccc(-c2c[nH]c3ncc(-c4cc(OC)c(OC)c(OC)c4)cc23)cc1 [Example 164, N-methyl-4-[5-(3,4,5-trimethoxy-phenyl)-1H-pyrrolo[2,3-b]pyridin-3-yl]-benzamide]",,< 6.00
"CNC(=O)c1ccc(-c2c[nH]c3ncc(-c4ccc(CN5CCN(C)CC5)cc4)cc23)cc1 [Example 165, N-methyl-4-{5-[4-(4-methyl-piperazin-1-ylmethyl)-phenyl]-1H-pyrrolo[2,3-b]pyridin-3-yl}-benzamide]",> 7.00,
"c1cc2cc(-c3c[nH]c4ncc(-c5ccc(CN6CCNCC6)cc5)cc34)ccc2[nH]1 [Example 168, 3-(1H-indol-5-yl)-5-(4-(piperazin-1-ylmethyl)phenyl)-1H-pyrrolo[2,3-b]pyridine]",,6.00 to 7.00
CN1CCN(Cc2ccc(-c3cnc4[nH]cc(-c5ccc(F)cc5)c4c3)cc2)CC1 [Example 169],< 6.00,
CN1CCN(Cc2ccc(-c3cnc4[nH]cc(-c5ccc(C(F)(F)F)cc5)c4c3)cc2)CC1 [Example 170],< 6.00,
COc1ccc(-c2c[nH]c3ncc(-c4ccc(CN5CCN(C)CC5)cc4)cc23)cc1 [Example 171],,6.00 to 7.00
Cc1cc2cc(-c3c[nH]c4ncc(-c5ccc(CN6CCN(C)CC6)cc5)cc34)ccc2[nH]1 [Example 172],,6.00 to 7.00
CN1CCN(Cc2ccc(-c3cnc4[nH]cc(-c5ccc6[nH]ncc6c5)c4c3)cc2)CC1 [Example 173],,6.00 to 7.00
CN1CCN(Cc2ccc(-c3cnc4[nH]cc(-c5ccc6c(c5)CC(=O)N6)c4c3)cc2)CC1 [Example 174],,6.00 to 7.00
CN1CCN(Cc2ccc(-c3cnc4[nH]cc(-c5ccc6scnc6c5)c4c3)cc2)CC1 [Example 175],,6.00 to 7.00

# Next, values leading:
pIC50 [1],pIC50,SMILES
,6.00 to 7.00,Cc1c[nH]c2ccc(-c3c[nH]c4ncc(-c5ccc(CN6CCN(C)CC6)cc5)cc34)cc12 [Example 176]
> 7.00,,CN1CCN(Cc2ccc(-c3cnc4[nH]cc(-c5ccc6nccc(O)c6c5)c4c3)cc2)CC1 [Example 177]
,6.00 to 7.00,CN1CCN(Cc2ccc(-c3cnc4[nH]cc(-c5ccc6c(O)ccnc6c5)c4c3)cc2)CC1 [Example 178]
> 7.00,,CN1CCN(Cc2ccc(-c3cnc4[nH]cc(-c5ccc6ncccc6c5)c4c3)cc2)CC1 [Example 180]
,> 7.00,[2H]c1cc2cc(-c3c[nH]c4ncc(-c5ccc(CN6CCN(C)CC6)cc5)cc34)ccc2[nH]1 [Example 181]
> 7.00,,"c1cc2cc(-c3c[nH]c4ncc(-c5ccc(CN6CCOCC6)cc5)cc34)ccc2[nH]1 [Example 184, 4-(4-(3-(1H-indol-5-yl)-1H-pyrrolo[2,3-b]pyridin-5-yl)benzyl)morpholine]"
,6.00 to 7.00,"FC1(F)CCN(Cc2ccc(-c3cnc4[nH]cc(-c5ccc6[nH]ccc6c5)c4c3)cc2)CC1 [Example 185, 5-(4-((4,4-difluoropiperidin-1-yl)methyl)phenyl)-3-(1H-indol-5-yl)-1H-pyrrolo[2,3-b]pyridine]"
> 7.00,,"CC(=O)N1CCN(Cc2ccc(-c3cnc4[nH]cc(-c5ccc6[nH]ccc6c5)c4c3)cc2)CC1C (stereo not drawn) [Example 188, 1-(4-(4-(3-(1H-indol-5-yl)-1H-pyrrolo[2,3-b]pyridin-5-yl)benzyl)-2-methylpiperazin-1-yl)ethanone]"
> 7.00,,"CC1CN(Cc2ccc(-c3cnc4[nH]cc(-c5ccc6[nH]ccc6c5)c4c3)cc2)CCN1C (stereo not drawn) [Example 189, 5-(4-((3,4-dimethylpiperazin-1-yl)methyl)phenyl)-3-(1H-indol-5-yl)-1H-pyrrolo[2,3-b]pyridine]"
,6.00 to 7.00,CC(C)(C)C(=O)N1CCN(Cc2ccc(-c3cnc4[nH]cc(-c5ccc6[nH]ccc6c5)c4c3)cc2)CC1 [Example 191]
> 7.00,,CC(C)(C)CC(=O)N1CCN(Cc2ccc(-c3cnc4[nH]cc(-c5ccc6[nH]ccc6c5)c4c3)cc2)CC1 [Example 192]
> 7.00,,CCOC(=O)N1CCN(Cc2ccc(-c3cnc4[nH]cc(-c5ccc6[nH]ccc6c5)c4c3)cc2)CC1 [Example 193]
> 7.00,,COC(=O)N1CCN(Cc2ccc(-c3cnc4[nH]cc(-c5ccc6[nH]ccc6c5)c4c3)cc2)CC1 [Example 194]
> 7.00,,CC(C)C(=O)N1CCN(Cc2ccc(-c3cnc4[nH]cc(-c5ccc6[nH]ccc6c5)c4c3)cc2)CC1 [Example 196]
> 7.00,,CCC(=O)N1CCN(Cc2ccc(-c3cnc4[nH]cc(-c5ccc6[nH]ccc6c5)c4c3)cc2)CC1 [Example 197]
> 7.00,,COCC(=O)N1CCN(Cc2ccc(-c3cnc4[nH]cc(-c5ccc6[nH]ccc6c5)c4c3)cc2)CC1 [Example 198]
> 7.00,,CCS(=O)(=O)N1CCN(Cc2ccc(-c3cnc4[nH]cc(-c5ccc6[nH]ccc6c5)c4c3)cc2)CC1 [Example 199]
> 7.00,,CS(=O)(=O)N1CCN(Cc2ccc(-c3cnc4[nH]cc(-c5ccc6[nH]ccc6c5)c4c3)cc2)CC1 [Example 200]
> 7.00,,O=C(CCO)N1CCN(Cc2ccc(-c3cnc4[nH]cc(-c5ccc6[nH]ccc6c5)c4c3)cc2)CC1 [Example 201]
> 7.00,,COCCC(=O)N1CCN(Cc2ccc(-c3cnc4[nH]cc(-c5ccc6[nH]ccc6c5)c4c3)cc2)CC1 [Example 202]
> 7.00,,O=C(CC1CC1)N1CCN(Cc2ccc(-c3cnc4[nH]cc(-c5ccc6[nH]ccc6c5)c4c3)cc2)CC1 [Example 203]
